Measurements: patent publication US20200069664A1, “METHODS FOR TREATING INFECTION” (Salix Pharmaceuticals, Ltd, priority 2010, published 2020)
“Also recorded” adds a separate entry of the source. Where two headings read alike, the source gives them in different places.

Assays:
ETEC isolates = type: cell-based, E coli
EAEC = assay: MIC50 previously established for EAEC; type: cell-based, E. coli; conditions: previously established in our laboratory
[1] = oral administration, healthy volunteers (Descombe et al. 1994); cited from earlier work
EAEC strain O42 = type: cell-based, E. coli
S sonnei isolate = assay: MMP-9 detection by gelatin zymography in S sonnei isolate after rifaximin exposure; type: cell-based
Procedure: (§1) Expression of matrix metalloproteinase-9 (MMP-9) was analyzed using gelatin zymography in all viable EAEC and S. sonnei isolates growing on MacConkey agar. Isolates were suspended in 1 mL of 0.1 M phosphate buffered saline (pH 7.2) and centrifuged at 1000 g for 10 minutes at 4° C. The supernatant was subjected to gelatin zymography to detect MMP-9 activity using a modified Heussen and Dowdle protocol (9). In summary, the supernatant was diluted 1:2 in a sample buffer (125 mM Tris-HCl, pH 6.8, 20% glycerol, 4% sodium dodecyl sulfate, 0.02% bromphenol blue), and 20 μL was loaded on to a 10% SDS-PAGE gel containing 1 mg/mL gelatin. Prestained standard proteins were used as molecular weight markers. After electrophoresis, gels were rinsed with incubation buffer (2.5% triton X-100, 50 mM Tris-HCl, pH 7.4, 0.02% Brij 35, 10 mM CaCl2, 2 μM ZnCl2) for 1 hour at room temperature to remove SDS. Gels were then incubated overnight at 37° C. and subsequently stained with Coomassie brilliant blue R-250 (Thermo Fisher Scientific, Inc, Rockford, Ill.). […] Matrix metalloproteinase-9 was identified among all gelatinolytic proteins by size.

S. sonnei = S. sonnei adherence and internalization in antibiotic-pretreated HeLa cells; type: cell-based; conditions: vs other treatment groups
[2] = system: enteroaggregative E coli strains; assay: MIC against rifaximin by agar dilution, EAEC isolates; type: cell-based; conditions: 2 EAEC isolates
Excerpt: Five enterotoxigenic E coli strains, 2 enteroaggregative E coli strains, and 1 S sonnei isolate were included in the study. The isolates had been identified previously from patients with TD acquired in Guadalajara, Mexico, during the summer of 2004 (5).

HEp-2 cells = assay: Cytokine array of supernatants of treated HEp-2 cells; conditions: 64 μg/ml, 24 h; Panomics array of 36 cytokines
EAEC isolates = assay: MMP-9 detection by gelatin zymography in EAEC isolates after rifaximin exposure; type: cell-based, E coli
Procedure: as §1

C difficile isolates [3] = assay: In vitro susceptibility of C difficile isolates (agar dilution for rifaximin, Etest for rifampin)
C difficile isolates [4] = conditions: cited from earlier work
[5] = rifaximin 8 mg/L, exposure 4 hrs
[6] = rifaximin 8 mg/L, exposure 8 hrs
[7] = rifaximin 8 mg/L, exposure 18 hrs
[8] = rifaximin 8 mg/L, exposure 24 hrs
[9] = rifaximin 32 mg/L, exposure 4 hrs
[10] = rifaximin 32 mg/L, exposure 8 hrs
[11] = rifaximin 32 mg/L, exposure 18 hrs
[12] = rifaximin 64 mg/L, exposure 4 hrs
[13] = rifaximin 64 mg/L, exposure 8 hrs
[14] = 24 h pretreatment with 64 mg (sic; FIG. 2: 64 μg/ml)
[15] = resistance = MIC≥32 μg/mL, for rifaximin b194 says 'rifaximin alone'
[16] = 110 C difficile isolates, 1983 to 2004

## (2S,16Z,18E,20S,21S ,22R, 23R,24R,255,265,275,28E)-5,6,21,23,25 Pentahydroxy-27-methoxy-2,4,11,16,20,22,24,26-octamethyl-2,7-(epoxypentadeca-(1,11,13) trienimino) benzofuro (4,5-e) pyrido(1,2,-a) benzimidazole-1,15(2H)-dione,25-acetate [Rifaximin]
ETEC isolates; 4- and 8-hour exposure to rifaximin 8, 32, and 64 mg/L
  Expression of virulence factors (ST, LT, CS2/CS3, CS6) by ETEC isolates: expressed all examined virulence factors
ETEC isolates; 18 hours, rifaximin 8 mg/L
  Expression of virulence factors (ST, LT, CS2/CS3, CS6) by ETEC isolates: all virulence factors were expressed
ETEC isolates; 18 hours, rifaximin 32 mg/L
  Expression of virulence factors (ST, LT, CS2/CS3, CS6) by ETEC isolates: no factors were seen
ETEC isolates; 24 hours, rifaximin 8 mg/L
  Expression of virulence factors (ST, LT, CS2/CS3, CS6) by ETEC isolates: did not express any virulence factors
ETEC isolates; [5]
  Expression of CS2/CS3 in ETEC isolates: +
  Expression of CS6 in ETEC isolates: +
  Expression of LT in ETEC isolates: +
  Expression of ST in ETEC isolates: +
  Expression of ST/LT in ETEC isolates: +
ETEC isolates; [6]
  Expression of CS2/CS3 in ETEC isolates: +
  Expression of CS6 in ETEC isolates: +
  Expression of LT in ETEC isolates: +
  Expression of ST in ETEC isolates: +
  Expression of ST/LT in ETEC isolates: +
ETEC isolates; [7]
  Expression of CS2/CS3 in ETEC isolates: +
  Expression of CS6 in ETEC isolates: +
  Expression of LT in ETEC isolates: +
  Expression of ST in ETEC isolates: +
  Expression of ST/LT in ETEC isolates: +
ETEC isolates; [8]
  Expression of CS2/CS3 in ETEC isolates: −
  Expression of CS6 in ETEC isolates: −
  Expression of LT in ETEC isolates: −
  Expression of ST in ETEC isolates: −
  Expression of ST/LT in ETEC isolates: −
ETEC isolates; [9]
  Expression of CS2/CS3 in ETEC isolates: +
  Expression of CS6 in ETEC isolates: +
  Expression of LT in ETEC isolates: +
  Expression of ST in ETEC isolates: +
  Expression of ST/LT in ETEC isolates: +
ETEC isolates; [10]
  Expression of CS2/CS3 in ETEC isolates: +
  Expression of CS6 in ETEC isolates: +
  Expression of LT in ETEC isolates: +
  Expression of ST in ETEC isolates: +
  Expression of ST/LT in ETEC isolates: +
ETEC isolates; [11]
  Expression of CS2/CS3 in ETEC isolates: −
  Expression of CS6 in ETEC isolates: −
  Expression of LT in ETEC isolates: −
  Expression of ST in ETEC isolates: −
  Expression of ST/LT in ETEC isolates: −
ETEC isolates; [12]
  Expression of CS2/CS3 in ETEC isolates: +
  Expression of CS6 in ETEC isolates: +
  Expression of LT in ETEC isolates: +
  Expression of ST in ETEC isolates: +
  Expression of ST/LT in ETEC isolates: +
ETEC isolates; [13]
  Expression of CS2/CS3 in ETEC isolates: +
  Expression of CS6 in ETEC isolates: +
  Expression of LT in ETEC isolates: +
  Expression of ST in ETEC isolates: +
  Expression of ST/LT in ETEC isolates: +
EAEC
  MIC50 for EAEC: 64 µg/mL
[1]
  Systemic absorption: negligible
EAEC strain O42
  EAEC adherence to pretreated HEp-2 cells, quantified by CFU: significantly lower; also recorded: reduced EAEC adherence
EAEC strain O42; [14]
  EAEC adherence to A549 cells: significantly reduced
  EAEC adherence to HCT-8 cells: not significant
  EAEC adherence to HEp-2 cells: significantly reduced
  EAEC adherence to HeLa cells: significantly reduced
EAEC strain O42; HEp-2 cells pretreated 24 h, washed, EAEC 3 h, Wright-Giemsa staining
  EAEC O42 adherence to pretreated HEp-2 cells (microscopy, stacked-brick pattern): greatly reduced
EAEC strain O42; after 3 h incubation with pretreated HEp-2 cells
  EAEC bacterial counts in the supernatants (viability): No differences; also recorded: without affecting EAEC viability
S sonnei isolate; other time points and rifaximin concentrations
  MMP-9 in the S sonnei isolate: either undetectable or the isolate was not viable
S sonnei isolate; rifaximin 8 mg/L for 4 hours
  MMP-9 in the S sonnei isolate: detectable
S. sonnei
  S. sonnei attachment: no effect
  S. sonnei internalization: no effect
[2]
  MIC: 64 µg/mL
HEp-2 cells
  Cytokines detected in supernatants of treated HEp-2 cells: detectable levels of RANTES and IL-4 only; also recorded: reduced the expression of various proinflammatory cytokines
EAEC isolates; 18-hour time point (rifaximin 8 mg/L)
  MMP-9 expression by EAEC isolates: one EAEC isolate produced MMP-9, but the other isolate did not
EAEC isolates; rifaximin 8 mg/L for 4 and 8 hours
  MMP-9 expression by EAEC isolates: expressed MMP-9
EAEC isolates; rifaximin 8 mg/L for 24 hours
  MMP-9 expression by EAEC isolates: undetectable
EAEC isolates; rifaximin 32 or 64 mg/L for 4, 8, or 18 hours
  MMP-9 expression by EAEC isolates: undetectable
C difficile isolates [3]; 359 C difficile isolates
  MIC50: <0.01 µg/mL
  MIC90: 0.25 µg/mL
C difficile isolates [3]; 359 C difficile isolates, listed as rifaximin
  MIC50: < 0.01 µg/mL
C difficile isolates [3]; MIC≥32 μg/mL
  Isolates resistant to both rifampin and rifaximin, percent of 359: 2%
C difficile isolates [3]; [15]
  Resistant isolates, number of 359: 11
  Resistant isolates, percent of 359: 3%
C difficile isolates [4]; 110 C difficile isolates from multiple locations
  Isolates resistant to rifaximin, based on MIC values: 2.7%
C difficile isolates [4]; [16]
  MIC50: 0.0075 µg/mL
  MIC90: 0.015 µg/mL
